One compound from patent US11702416B2, “1H-pyrrolo[2,3-c]pyridin-7(6H)-ones and pyrazolo[3,4-c]pyridin-7(6H)-ones as inhibitors of BET proteins” (Incyte Corporation, priority 2014, dated 2023) can be followed below.

Broadly, the IC50 is the point on the concentration scale where inhibition reaches its midpoint. Low values mean higher potency, high ones lower potency.

The experiment deals with KMS.12.BM cell line (human myeloma). In words: KMS.12.BM cell viability assay. Type of experiment: cell-based. The following applies: 3 days, Cell Titer-GLO ATP quantitation; concentration required for 50% cell death. How it is done:
KMS.12.BM cell line (human myeloma) was purchased from JCRB (Osaka, Japan) and maintained in RPMI with 10% FBS culture medium. To measure the cytotoxic activity of the compounds through ATP quantitation, the KMS.12.BM cells are plated in the RPMI culture medium at 5000 cells/well/per 100 μL into a 96-well polystyrene clear black tissue culture plate (Greiner-bio-one through VWR, NJ), in the presence or absence of a concentration range of test compounds. After 3 days, […] Cell Titer-GLO Luminescent (Promega, Madison, Wis.) cell culture agent is added to each well for 10 minutes at room temperature to stabilize the luminescent signal. This determines the number of viable cells in culture based on quantitation of the ATP present, which signals the presence of metabolically active cells. Luminescence is measured with the Top Count 384 (Packard Bioscience through Perkin Elmer, Boston, Mass.). Compound inhibition is determined relative to cells cultured with no drug and the IC50 is reported as the compound concentration required for 50% cell death.
A general note: ATP-based viability assays read luminescence as a measure of living cells.

Regarding `Cn1cc(-c2cc(S(C)(=O)=O)cc3c2NC2(CCC2)C(=O)N3)c2cc[nH]c2c1=O` [Example 62, 8′-(6-methyl-7-oxo-6,7-dihydro-1H-pyrrolo[2,3-c]pyridin-4-yl)-6′-(methylsulfonyl)-1,4′-dihydro-3H-spiro[cyclobutane-1,2′-quinoxalin]-3′-one], the concentration for half-maximal inhibition (IC50) is ≤ 1 µM.
